# Measurements taken from US20160106711A1, “3-3-Di-Substituted-Oxindoles as Inhibitors of Translation Initiation” (President and Fellows of Harvard College, priority 2012, published 2016).
# Experiments:
# [1] = system: KLN; assay: Cell growth assay (sulforhodamine B), KLN cells; format: cell-based, mouse; conditions: Mus musculus, 120 h, 5 days, SRB
# [2] = system: CRL-2813; assay: Cell growth assay (sulforhodamine B), CRL-2813 cells; format: cell-based, human; conditions: Homo sapiens, CRL2813, 120 h, 5 days, SRB
# In short: (§1)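 Cells were exposed for 5 days to 0.54-6 µM compound, then TCA-fixed and stained with sulforhodamine B, read at 490 nm. Growth was expressed as %T/C with time-zero correction. IC50 is the concentration giving 50% growth inhibition.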
# [3] = system: CRL-2351; assay: Cell growth assay (sulforhodamine B), CRL-2351 cells; format: cell-based, human; conditions: Homo sapiens, 120 h, 5 days, SRB
# In short: as §1
# [4] = system: CHOP mRNA; assay: Real time PCR of CHOP mRNA expression, KLN cells; format: cell-based, mouse; conditions: Mus musculus
# Protocol: In order to validate the compounds described herein as modifiers of the abundance of the eIF2•GTP•Met-tRNAi ternary complex, the effects of the compounds on endogenous cellular markers of the ternary complex were determined. For example, reducing amount of the ternary complex increases translation of ATF-4, which results in elevated expression of CHOP mRNA and protein. Therefore, expression of endogenous CHOP mRNA and CHOP protein in KLN-tTA/pBISA-DL^(ATF-4) cells were utilized as secondary assays to validate the compounds as modifiers of the eIF2•GTP•Met-tRNAi ternary complex.
# Total RNA was extracted with TaqMan Gene Expression Cells-to-Ct™ Kit (Applied Biosystems, Branchburg, N.J.) and DNAse I treated according to manufacturer's recommendations. 1-Step Real-time PCR was performed on a Bio-Rad iCycler IQ5 system by using B-R 1-Step SYBR Green qRT-PCR Kit (Quanta BioSciences, Gaithersburg, Md.) according to manufacturer's specifications. The thermal cycler conditions were as follows: 10 minutes at 50° C., hold for 5 minutes at 95° C., followed by 2-step PCR for 45 cycles of 95° C. for 15 seconds followed by 60° C. for 30 seconds. All PCRs were performed in triplicate in at least two independent PCR runs. Mean values of these repeated measurements were used for calculation. To calibrate the results, all the transcript quantities were normalized to 18S rRNA (18S ribosomal RNA-like mRNA in mouse). The following primers were used in real-time PCR reactions.
# The effects of these compounds on the ternary complex assay and the expression of CHOP mRNA was assayed in adherent mouse (KLN) and human solid tumors cells (CRL-2351 and CRL-2813).
# [5] = system: eIF2•GTP•Met-tRNAi ternary complex; assay: Ternary complex assay (ATF-4 assay), dual luciferase firefly/renilla ratio; format: cell-based, mouse; conditions: Mus musculus; for maximal fold induction at 40 µM: read-out: ATF-4 Xmax @ 40 μM
# In short: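 Stable KLN cancer cells expressing tTA carry a bidirectional reporter in which firefly luciferase sits behind the ATF-4 5′UTR and renilla luciferase behind a plasmid-derived 5′UTR only. Lysates were read by Dual-Glo luciferase assay, and the output is the firefly/renilla signal ratio.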
SMILES,IC50 [1] [µM],IC50 [2] [µM],IC50 [3] [µM],fold induction at 10 µM ([4]; at 10 (uM)),fold induction at 80 µM ([4]; at 80 (uM)),maximal fold induction at 80 µM ([5]; read-out: ATF-4 Xmax),fold induction at 20 µM ([4]; at 20 uM),maximal fold induction at 20 µM ([5]; read-out: ATF-4 Xmax),maximal fold induction at 40 µM [5],maximal fold induction at 10 µM ([5]; read-out: ATF-4 Xmax),"maximal fold induction at 2.5 µM ([5]; 2.5 uM, read-out: ATF-4 Xmax)","maximal fold induction at 5 µM ([5]; cell prints 5 (uM), read-out: ATF-4 Xmax)"
CN1CCN(CCOc2ccc(C(C)(C)C)cc2C2(c3cc(C(C)(C)C)ccc3OCCN3CCN(C)CC3)C(=O)N(CCN3CCNCC3)c3ccccc32)CC1 [HY313],9.3 ± 3.2,> 20,0.6 ± 0.1,6.73,–,–,–,–,–,–,–,–
CC(C)(C)c1ccc(O)c(C2(c3cc(C(C)(C)C)ccc3OCCBr)C(=O)N(CCBr)c3ccccc32)c1 (centres unmarked) [HY183],> 20,1.1 ± 0.3,2.9 ± 1.2,–,1.83,1.9 ± 0.03,–,–,–,–,–,–
"O=C1Nc2ccccc2C1(c1cc(C2CCCC2)ccc1O)c1cc(C2CCCC2)ccc1O [HY051, 3,3-Bis(5-Cyclopentyl-2-Hydroxyphenyl)Indolin-2-One]",> 20,3.1 ± 0.2,5.3 ± 2.4,–,–,–,13.8,5.48 ± 0.3,–,–,–,–
COc1ccc(C2(c3cc(C(C)(C)C)ccc3OCCN3CCOCC3)C(=O)Nc3ccccc32)cc1F (centres unmarked) [Sd205],3.4 ± 1.2,2.7 ± 0.4,2.5 ± 0.6,–,–,5.2 ± 2.1,–,–,–,–,–,–
"C#CCOc1ccc(C(C)(C)C)cc1C1(c2ccccc2)C(=O)Nc2ccccc21 (centres unmarked) [Sd123, 3-[5-tert-butyl-2-(prop-2-yn-1-yloxy)phenyl]-3-phenylindol-2-one]",> 20,> 20,17.5 ± 2,–,–,5.1 ± 1.65,–,–,–,–,–,–
"Cc1cc(C2(c3cc(C(C)(C)C)ccc3O)C(=O)Nc3ccccc32)ccc1Cl (centres unmarked) [HY017, 3-(5-tert-Butyl-2-Hydroxyphenyl)-3-(4-Chloro-3-Methylphenyl)Indolin-2-One]",4.3 ± 1,2.9 ± 0.1,2.9 ± 0.1,–,–,–,–,–,0.65 ± 0.7,–,–,–
"CC(C)(C)c1ccc(O)c(C2(c3cc(C(C)(C)C)ccc3O)C(=O)Nc3ccccc32)c1 [HY021, 3,3-Bis(5-tert-Butyl-2-Hydroxyphenyl)Indolin-2-One]",12 ± 0.7,10.2 ± 1.2,2.8 ± 0.4,–,–,–,–,10.6,4.4,5.2 ± 2.2,–,–
COc1ccc(C2(c3cc(C(C)(C)C)ccc3O)C(=O)Nc3ccccc32)cc1 (centres unmarked) [Sd086],15.7 ± 1.1,2.75 ± 0.1,2.65 ± 0.1,–,–,–,–,–,5.6 ± 0.5,–,–,–
CC(C)(C)c1ccc(O)c(C2(c3cc(C(C)(C)C)ccc3OCCN3CCOCC3)C(=O)Nc3ccccc32)c1 (centres unmarked) [HY063],7.4 ± 2.5,3.2 ± 0.2,1.6 ± 0.2,–,–,–,–,–,4.4 ± 1.5,–,–,–
O=C1Nc2c(ccc(F)c2F)C1(c1ccc(O)cc1)c1ccc(O)cc1 [SD132],> 20,3.74 ± 0.28,> 20,–,–,8.8 ± 1.97,–,–,–,–,–,–
CCN(CC)CCOc1ccc(C(C)(C)C)cc1C1(c2cc(C(C)(C)C)ccc2OCCN(CC)CC)C(=O)N(CCN(CC)CC)c2ccccc21 [HY296],1.6 ± 0.5,0.72 ± 0.23,0.59 ± 0.26,–,–,–,–,–,–,–,14.3 ± 0.78,–
CC(C)(C)c1ccc(O)c(C2(c3cc(C(C)(C)C)ccc3OCCN3CCCCC3)C(=O)Nc3ccccc32)c1 (centres unmarked) [HY072],2.9 ± 0.4,3.35 ± 0.5,0.7 ± 0.1,–,–,–,–,4.15 ± 0.5,–,–,–,–
"COc1ccc(C2(c3cc(C(C)(C)C)ccc3OCCN3CCOCC3)C(=O)Nc3ccc(I)cc32)cc1 (centres unmarked) [Sd204, 3-{5-tert-butyl-2-[2-(morpholin-4-yl)ethoxy]phenyl}-5-iodo-3-(4-methoxyphenyl)indol-2-one]",12 ± 1.2,2.6 ± 0.4,6.1 ± 1.7,–,–,–,–,–,4.5 ± 0.93,–,–,–
"COC(=O)c1cccc2c1NC(=O)C2(c1ccc(OC)cc1)c1cc(C(C)(C)C)ccc1OCCN1CCOCC1 (centres unmarked) [Sd203, Methyl 3-{5-tert-butyl-2-[2-(morpholin-4-yl)ethoxy]phenyl}-3-(4-methoxyphenyl)-2-oxoindole-7-carboxylate]",17 ± 3.5,14.6 ± 2.8,16.3 ± 1.6,–,–,–,–,–,–,–,–,1.51 ± 0.3
"COc1ccc(C2(c3cc(C(C)(C)C)ccc3OCCN3CCOCC3)C(=O)Nc3ccccc32)cc1OC (centres unmarked) [Sd152, 3-{5-tert-butyl-2-[2-(morpholin-4-yl)ethoxy]phenyl}-3-(3,4-dimethoxyphenyl)-indol-2-one]",> 20,> 20,> 20,–,–,2.8,–,–,–,–,–,–
COc1ccc(C2(c3cc(C(C)(C)C)ccc3OCCN3CCOCC3)C(=O)Nc3ccc(OC(F)(F)F)cc32)cc1 (centres unmarked) [Sd225],9.3 ± 2.7,1.9 ± 0.7,2.9 ± 0.27,–,–,–,–,–,5.11 ± 0.48,–,–,–
"COc1ccc(C2(c3cc(C(C)(C)C)ccc3OCCN3CCOCC3)C(=O)Nc3ccc(OC)cc32)cc1 (centres unmarked) [Sd185, 3-{5-tert-butyl-2-[2-(morpholin-4-yl)ethoxy]phenyl}-5-methoxy-3-(4-methoxyphenyl)-indol-2-one]",2.75 ± 0.3,2.9 ± 0.3,4.5 ± 0.7,–,–,–,–,–,3.92 ± 0.16,–,–,–
"CC(C)(C)c1ccc(O)c(C2(c3ccc(CN4CCOCC4)cc3)C(=O)Nc3ccccc32)c1 (centres unmarked) [HY016, 3-(5-tert-butyl-2-hydroxyphenyl)-3-(4-(Morpholinomethyl)phenyl)Indolin-2-One]",17.3 ± 2.4,7.8 ± 0.66,7.3 ± 3.6,–,–,8.5 ± 5.3,–,–,–,–,–,–
CC(C)(C)c1ccc(C2(c3cc(C(C)(C)C)ccc3O)C(=O)Nc3ccccc32)c(OCCO)c1 (centres unmarked) [HY069],> 20,2.9 ± 0.3,8.8 ± 0.9,–,–,–,–,–,10.7 ± 1,–,–,–
CC(C)(C)c1ccc(O)c(C2(c3cc(C(C)(C)C)ccc3OCCN3CCCC3)C(=O)N(CCN3CCCC3)c3ccccc32)c1 (centres unmarked) [HY093],4.1 ± 0.8,7.25 ± 1.6,3.6 ± 0.7,–,–,–,–,2.21 ± 0.75,9 ± 1.7,–,–,–
CC(C)(C)c1ccc(OCCO)c(C2(c3cc(C(C)(C)C)ccc3OCCO)C(=O)Nc3ccccc32)c1 [HY169],11 ± 2.4,2.9 ± 0.1,2.7 ± 0.3,–,–,–,–,3.4 ± 0.1,–,–,–,–
"COc1ccc(C2(c3cc(OC(C)C)ccc3OCCN3CCOCC3)C(=O)Nc3ccccc32)cc1 (centres unmarked) [Sd179, 3-(4-Methoxyphenyl)-3-{2-[2-(morpholin-4-yl)ethoxy]-5-(propan-2-yloxy)phenyl}-indol-2-one]",11.8 ± 1,13.4 ± 0.7,8.6 ± 1,–,–,2.6 ± 0.14,–,–,–,–,–,–
CCCN1C(=O)C(c2cc(C(C)(C)C)ccc2O)(c2cc(C(C)(C)C)ccc2OCCN2CCCC2)c2ccccc21 (centres unmarked) [HY098],0.5 ± 0.2,0.9 ± 0.2,0.3 ± 0.1,–,–,–,–,–,–,8.7 ± 1.2,–,–
"CCCCc1ccc(O)c(C2(c3cc(CCCC)ccc3O)C(=O)Nc3ccccc32)c1 [HY048, 3,3-Bis(5-Butyl-2-Hydroxyphenyl)Indolin-2-One]",14.3 ± 1.6,3,1.9 ± 0.5,–,–,–,–,5 ± 1.5,–,–,–,–
